Experimental data published in patent US20210187128A1, “COLOR CHANGING SILK PATCH FOR VISIBLE ROS DETECTION” (University of Central Florida Research Foundation, Inc., priority 2019, published 2021).

What was measured:
[1] = cited from earlier work
[2] = test system: human skin keratinocyte (HaCat) cells; experiment: In vitro cellular biocompatibility of Amplex Red by MTT assay; type: cell-based; conditions: for cellular viability: highest concentration of 388 μM, beyond 80% considered biocompatible
Description: Amplex Red compound was tested for in vitro cellular toxicity analysis against the human skin keratinocyte (HaCat) cells (purchased from ATCC, USA) using cell culture-based MTT assay. Herein, 10,000 cells were grown overnight into a 96 well plate using DMEM:F12 cell culture media. Different concentrations of Amplex red compound were prepared using incomplete cell culture media and incubated with HaCat cells for a time period of 24 hours and 48 hours respectively. Post incubation time period, MTT analysis was performed using the standard protocol described in Singh 2018, herein incorporated by reference into this disclosure in its entirety. (S. (Singh, A. Ly, S. Das, T. S. Sakthivel, S. Barkam and S. Seal, Artif. Cells, Nanomed., Biotechnol., 2018, 1-8). MTT assay compound (Thiazyolyl blue tetrazolium bromide) was then added for measuring the cellular viability, and absorbance was recorded for treated samples in comparison to control samples (HaCat cells only) and data analysis was performed.

concentration found to be highly biocompatible ([2]; 24 hours): up to 388 μM | concentration found to be highly biocompatible ([2]; 48 hours): up to 388 μM
Compound: CC(=O)N1c2ccc(O)cc2Oc2cc(O)ccc21 [Amplex Red]
detection limit for H2O2 in solutions ([1]; in solutions): 10 picomolar | amount of H2O2 detected (limit of detection) ([1]; with HRP, 100 μL volume): 10 picomoles | toxicity to the cells [2]: completely non-toxic | cellular viability ([2]; 24 hours): > 80% | cellular viability ([2]; 48 hours): > 80%
